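96-well plates; 48 h exposure; 5 concentrations. Endpoints by linear interpolation between flanking doses. Not reached: highest tested concentration assigned. At the GI50, growth is halved. At the TGI there is no net growth.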

The source of these data is PubChem BioAssay (NCI).

Among the test systems are DU-145 prostate; TK-10 renal; HS 578T breast; HCT-15 colon; A498 renal; HOP-62 NSCLC; NCI-H460 lung; ACHN renal.
Holding throughout (assay): DTP human tumour cell line panel, 48 h

Broadly, the GI50 is the concentration that inhibits growth by half. The TGI is the concentration at which net growth stops. With `CCOC(=O)n1cc(C2=C(c3ccc(OC)c(OC)c3)COC2=O)c2ccccc21`, the GI50 in the test with DU-145 prostate was 0.0794 µM; in the test on TK-10 renal it was 13.5 µM; with HS 578T breast, 0.087 µM; with HCT-15 colon, 0.0408 µM; in the test with A498 renal, 0.0226 µM; in the test with HOP-62 NSCLC, 0.075 µM. Further, the values for the GI50 in the test on NCI-H460 lung and in the test with ACHN renal were 0.122 µM and 0.0615 µM, respectively. Besides, the TGI in the test with DU-145 prostate is over 100 µM; with TK-10 renal it was over 91.5 µM; in the test with HS 578T breast, over 100 µM; in the test with HCT-15 colon it was over 100 µM; in the test with A498 renal, 0.139 µM; in the test on HOP-62 NSCLC, over 100 µM. Moreover, the concentration for total growth inhibition (TGI) with NCI-H460 lung was 18.3 µM; with ACHN renal, over 73.1 µM.

Regarding `CC(=C(c1ccc(OCCN2CCCCC2)cc1)c1ccc(OCCN2CCCCC2)cc1)c1ccc(Cl)cc1`, the GI50 was 0.458 µM in the test on DU-145 prostate; 0.384 µM in the test on TK-10 renal; 0.458 µM in the test on HS 578T breast; 0.34 µM in the test on HCT-15 colon; 0.386 µM in the test on A498 renal; 0.439 µM in the test on HOP-62 NSCLC. Also, the GI50 was 0.452 µM in the test with NCI-H460 lung and 0.434 µM in the test with ACHN renal. For the same molecule, the TGI was 0.87 µM in the test on DU-145 prostate; 0.755 µM in the test on TK-10 renal; 1.04 µM in the test with HS 578T breast; 0.685 µM in the test with HCT-15 colon; 0.755 µM in the test with A498 renal; 0.888 µM with HOP-62 NSCLC. The figures for the TGI in the test on NCI-H460 lung and with ACHN renal were 0.844 µM and 0.779 µM, respectively.

For `Cc1ccc(NC2=C3CCCCC3OC2=O)cc1` (stereo unspecified), the GI50 is 88.8 µM with DU-145 prostate; over 100 µM with TK-10 renal; over 100 µM with HS 578T breast; over 100 µM in the test on HCT-15 colon; 65.9 µM with A498 renal; over 100 µM with HOP-62 NSCLC. The GI50 with NCI-H460 lung and in the test on ACHN renal was over 100 µM throughout. Moreover, the TGI in the test on DU-145 prostate, in the test with TK-10 renal, in the test on HS 578T breast, in the test on HCT-15 colon, in the test with A498 renal and in the test on HOP-62 NSCLC was over 100 µM in each case. The TGI in the test with NCI-H460 lung and with ACHN renal was over 100 µM throughout.

As to `Cc1nnc2ccnn2c1C`, the GI50 with DU-145 prostate, with TK-10 renal, in the test with HS 578T breast, in the test with HCT-15 colon, with HOP-62 NSCLC and in the test with NCI-H460 lung was over 100 µM each time. Moreover, in the test on ACHN renal, the GI50 is over 100 µM. The TGI in the test with DU-145 prostate, in the test with TK-10 renal, with HS 578T breast, in the test with HCT-15 colon, in the test with HOP-62 NSCLC and in the test on NCI-H460 lung was over 100 µM in each case. In addition, the TGI in the test on ACHN renal is over 100 µM.

`NCCNCCNCCN`: the GI50 with DU-145 prostate, in the test on TK-10 renal, in the test with HS 578T breast, in the test on HCT-15 colon, in the test with A498 renal and in the test with HOP-62 NSCLC was over 100 µM throughout. Besides, the GI50 with NCI-H460 lung and in the test with ACHN renal was over 100 µM each time. Further, the concentration for total growth inhibition (TGI) in the test with DU-145 prostate, in the test on TK-10 renal, in the test with HS 578T breast, with HCT-15 colon, in the test on A498 renal and in the test on HOP-62 NSCLC was over 100 µM each time. The TGI in the test with NCI-H460 lung and in the test on ACHN renal was over 100 µM each time.

Take `C=C1C(=O)O[C@H]2[C@H]1CC/C(CNC(=O)c1cc3ccccc3[nH]1)=C\CC[C@@]1(C)O[C@@H]21`: the GI50 was 0.575 µM in the test on DU-145 prostate; 1.48 µM in the test with TK-10 renal; 6.62 µM in the test on HS 578T breast; 0.439 µM in the test on HCT-15 colon; 3.15 µM in the test on A498 renal; 1.86 µM in the test with HOP-62 NSCLC. In addition, the GI50 in the test on NCI-H460 lung is 4.09 µM; with ACHN renal, 1.26 µM. The TGI came out at 1.87 µM in the test with DU-145 prostate; 3.23 µM in the test on TK-10 renal; 38.7 µM with HS 578T breast; 1.72 µM in the test with HCT-15 colon; 6.69 µM in the test on A498 renal; 4.37 µM in the test on HOP-62 NSCLC. The results for the TGI in the test with NCI-H460 lung and in the test on ACHN renal were 17.3 µM and 3.07 µM, respectively.

As for `O=C(Nc1nn2c(-c3cc(C(F)(F)F)cc(C(F)(F)F)c3)nnc2s1)C1CCCC1`, the GI50 was 1.95 µM in the test on DU-145 prostate; 1.79 µM in the test on TK-10 renal; 0.706 µM in the test on HS 578T breast; 0.665 µM in the test on HCT-15 colon; 0.255 µM with A498 renal; 2.42 µM with HOP-62 NSCLC. For the same molecule, the GI50 in the test on NCI-H460 lung is 0.473 µM; in the test on ACHN renal, 1.04 µM. Further, the concentration for total growth inhibition (TGI) with DU-145 prostate is over 100 µM; in the test with TK-10 renal, over 100 µM; with HS 578T breast, over 100 µM; in the test on HCT-15 colon it was over 100 µM; with A498 renal, 2.92 µM; with HOP-62 NSCLC, over 29.8 µM. For the same molecule, the TGI was over 100 µM with NCI-H460 lung and over 31.6 µM with ACHN renal.

As for `Nc1nc2[nH]cc(CCc3ccc(C(=O)N[C@@H](CCC(=O)O)C(=O)O)cc3)c2c(=O)[nH]1`, the TGI in the test on DU-145 prostate, with TK-10 renal, in the test with HS 578T breast, in the test on HCT-15 colon, with A498 renal and in the test on HOP-62 NSCLC was over 100 µM in each case. Besides, the total growth inhibition concentration (TGI) with NCI-H460 lung and in the test with ACHN renal was over 100 µM throughout. For the same molecule, the GI50 in the test on A498 renal was 0.124 µM; with HOP-62 NSCLC, 0.724 µM; in the test on NCI-H460 lung, 0.272 µM; with ACHN renal, 0.129 µM.

Turning to `COC1=CC(=O)C(C2(OC(C)C)OC(=O)C(Cl)=C2Cl)=CC1=O` (stereo unspecified), the TGI in the test on DU-145 prostate, in the test with TK-10 renal, in the test on HS 578T breast, in the test on HCT-15 colon, in the test on A498 renal and in the test with HOP-62 NSCLC was over 100 µM throughout. The TGI with NCI-H460 lung and in the test with ACHN renal was over 100 µM each time.

On to `Cc1cc2c(cc1C)[n+](=O)c(C(=O)c1ccccc1)c(C(F)F)n2[O-]`, for which the GI50 in the test on DU-145 prostate is 10.5 µM; with TK-10 renal, 38 µM; in the test with HS 578T breast, 32 µM; in the test on HCT-15 colon, 6.76 µM; in the test on A498 renal, 24.5 µM; in the test with HOP-62 NSCLC, 26.4 µM. For the same molecule, the GI50 was 5 µM in the test on NCI-H460 lung and 18 µM with ACHN renal. For the same molecule, the TGI in the test with DU-145 prostate was 46.4 µM; in the test with TK-10 renal it was over 100 µM; with HS 578T breast, over 100 µM; with HCT-15 colon it was over 100 µM; in the test on A498 renal, 91.1 µM; with HOP-62 NSCLC, over 100 µM. Further, the total growth inhibition concentration (TGI) in the test with NCI-H460 lung and with ACHN renal was over 100 µM each time.
